Patent US20130037709A1, “Method for Clinically Monitoring Niacin and Niacin Metabolites in Serum or Plasma” (priority 2010, published 2013)

Legend:
[1] = Stability in plasma
Procedure: (§1) Nicotinic acid, nicotinamide and nicotinuric acid are stable in plasma when frozen (at −20±5° C.) for 64 days and after 3 freeze/thaw cycles. When kept at room temperature, nicotinic acid in plasma becomes unstable after 24 hours.

[2] = Procedure: as §1
Remark: listed apart in the source
[3] = tested on: NAD and NADP in whole blood; settings: individuals undergoing niacin therapy; average pretherapy value 175; cited from earlier work
[4] = Long term storage in tubes (glass vs polypropylene); assay type: in vitro ADME
Excerpt: Most preferred are Vacutainer tubes containing lithium-heparin as an anticoagulant.

| SMILES | time after which unstable in plasma at room temperature ([1]; 24 hours) | time stable in plasma when frozen ([1]; 64 days) | stability in plasma after freeze/thaw cycles ([1]; plasma) | stability in fresh whole blood [2] | time stable in serum when refrigerated (refrigerated) | time stable in serum at room temperature (room temperature) | average niacin number after niacin supplements [3] | stability in plasma after freeze/thaw cycles ([1]; plasma, after 3 freeze/thaw cycles) | time stable in plasma when frozen ([1]; plasma, frozen at −20±5° C.) | change in concentration on long term storage in polypropylene tubes [4] |
| --- | --- | --- | --- | --- | --- | --- | --- | --- | --- | --- |
| O=C(O)c1cccnc1 [nicotinic acid, pyridine 3-carboxylic acid] | 24 h | 64 days | stable | neither nicotinic acid nor the active metabolites were stable | 15 days | 15 days | 665 | – | – | – |
| O=C(O)CNC(=O)c1cccnc1 [nicotinuric acid] | – | – | – | – | – | – | – | stable | 64 days | – |
| NC(=O)c1cccnc1 [nicotinamide] | – | 64 days | stable | – | – | – | – | – | – | significant changes in the concentration |
